{"source": "paper PMC10145898", "about": "“Drug Repurposing of FDA Compounds against α-Glucosidase for the Treatment of Type 2 Diabetes: Insights from Molecular Docking and Molecular Dynamics Simulations” (Pharmaceuticals, 2023)", "biological_target": "α-glucosidase", "experiment": "pNPG hydrolysis absorbance assay at […] nm, pH […] °C", "format": "biochemical", "data": [{"smiles": "COc1cc2c(cc1O)CCN[C@]21CS[C@@H]2c3c(OC(C)=O)c(C)c4c(c3[C@H](COC1=O)N1[C@@H]2[C@H]2c3c(cc(C)c(OC)c3O)C[C@@H]([C@@H]1O)N2C)OCO4", "note": "[Trabectedin]", "values": [{"measurement": "IC50", "value": "1260 ± 700", "unit": "nM"}]}]}
